In US9139574B2, “Tumor targeted drug combretastatin A4 derivative” (Nanjing Sanhome Pharmaceutical Co., Ltd., priority 2011, dated 2015):

Experiments:
[1] = test system: tubulin; experiment: Inhibitory activity on tubulin polymerization (kit BK011P, Cytoskeleton); type: biochemical; conditions: 37° C., 60 minutes, fluorescence, Vmax
Description: The compounds were formulated into six different concentrations (0.03, 0.3, 0.9, 3, 9, 30 μM). The tubulin polymerization assay kit (Cat. # BK011P, Cytoskeleton) was used for testing. The samples were incubated at 37° C. for 60 minutes, and then fluorescence was collected using Gemini EM Fluorescence Microplate Reader collected at 410-460 nm. Vmax was calculated using SOFTMAX® PRO microplate data acquisition & analysis software. The tubulin inhibition (IC50) of the compound was calculated using GRAPHPAD PRISM® v5.01 graphing and statistics software.

[2] = test system: NCI-H460; experiment: MTT assay of anti-tumor activity, NCI-H460; type: cell-based; conditions: NCI-H460 cells
Description: (§1) The cells were digested and counted. The cell suspension was prepared in a concentration of 5×10^4 cells/ml. 100 μL of the cell suspension per well was added into 96-well plates (5×10^3 cells per well). The 96-well plates were placed in a 5% CO2 incubator at 37° C. for 24 hours. The drugs were diluted with the complete medium to the desired concentrations. 100 μL of the corresponding drug-containing medium was added into each well. Negative control group, vehicle control group and positive control group were set. The 96-well plates were placed in 5% CO2 incubator at 37° C. for 72 hours. The 96-well plates were subjected to a MTT assay, and measured OD value at λ=490 nm. The measurement procedure comprises adding 20 μL MTT (5 mg/ml) for each well, incubating for 4 hours in an incubator, discarding the medium, dissolving by adding 150 μL DMSO into each well, mixing uniformly by rocking gently for 10 minutes on a shaker, reading OD value of each well in a microplate reader at λ=490 nm. The inhibition rate was calculated, the results were recorded, and the anti-tumor activity was assessed.

[3] = test system: K562; experiment: MTT assay of anti-tumor activity, K562; type: cell-based; conditions: K562 cells
Description: as §1

[4] = test system: DU-145; experiment: MTT assay of anti-tumor activity, DU-145; type: cell-based; conditions: DU-145 cells
Description: as §1

[5] = test system: MCF-7; experiment: MTT assay of anti-tumor activity, MCF-7; type: cell-based
Description: as §1

[6] = test system: HCT-116; experiment: MTT assay of anti-tumor activity, HCT-116; type: cell-based; conditions: HCT-116 cells
Description: as §1

[7] = Homo sapiens, MCF7, 72 h, MCF-7 cells

| Structure (SMILES) | IC50 [1] [nM] | IC50 ([2]; Homo sapiens, NCI-H460, 72 h) [nM] | IC50 ([3]; Homo sapiens, K562, 72 h) [nM] | IC50 ([4]; Homo sapiens, DU-145, 72 h) [nM] | IC50 [5, 7] [nM] | IC50 ([6]; Homo sapiens, HCT-116, 72 h) [nM] | melting point [°C] | other results |
| --- | --- | --- | --- | --- | --- | --- | --- | --- |
| COc1cc(OC)cc(-c2nc[nH]c2-c2ccc(OC)c(N)c2)c1 [Compound C129, 4-(3,5-dimethoxyphenyl)-5-(3-amino-4-methoxyphenyl)imidazole] | 660 |  |  |  |  |  |  |  |
| COc1cc(OC)cc(-c2nc[nH]c2-c2ccc(OC)c(O)c2N)c1 [Compound C147, 4-(3,5-dimethoxyphenyl)-5-(2-amino-3-hydroxy-4-methoxyphenyl)imidazole] |  | 89.3 | 7.6 | 123 | 8.9 | > 300 |  |  |
| CNc1ccc(-c2ocnc2-c2cc(OC)cc(OC)c2)cc1F [Compound C264, 4-(3,5-dimethoxyphenyl)-5-(3-fluoro-4-methylaminophenyl)oxazole] | 860 |  |  |  |  |  |  |  |
| COc1cc(-c2ncn(-c3cc(OC)c(OC)c(OC)c3)c2-c2ccc(N(C)C)cc2)cc(OC)c1OC [Compound C106, 5-(4-dimethylaminophenyl)-4-(3,4,5-trimethoxyphenyl)-1-(3,4,5-trimethoxyphenyl)imidazole] |  | > 300 | 3.2 | 92.3 | 7.3 | 136 | 168.8 to 170.9 |  |
| COc1cc(OC)cc(-c2ncn(C)c2-c2ccc(OC(F)F)c(N)c2)c1 [Compound C135, 4-(3,5-dimethoxyphenyl)-5-(3-amino-4-difluoromethoxyphenyl)-1-methylimidazole] |  | 76.3 | 6.9 | 161 | 5.6 | 68 | 99.2 to 101.3 |  |
| COc1ccc(-c2c(-c3cc(OC)c(OC)c(OC)c3)ncn2-c2ccccc2)cc1O [Compound C087, 5-(3-hydroxy-4-methoxyphenyl)-4-(3,4,5-trimethoxyphenyl)-1-phenylimidazole] |  |  |  |  |  |  | 176 to 177 | IC50 ([2]; Homo sapiens, 72 hours): 153 nM; IC50 ([3]; Homo sapiens, 72 hours): 4.6 nM; IC50 ([4]; Homo sapiens, 72 hours): > 300 nM; IC50 ([5]; Homo sapiens, MCF7, MCF-7 cells, 72 hours): 6.2 nM; IC50 ([6]; Homo sapiens, 72 hours): 77 nM |
| COc1cc(OC)cc(-c2ncoc2-c2ccc(OC)c(O)c2N)c1 [Compound C124, 4-(3,5-dimethoxyphenyl)-5-(2-amino-3-hydroxy-4-methoxyphenyl)oxazole] | 1040 | > 300 | 6.4 | 280 | 4.3 | 33 |  |  |
| COc1ccc(/C=C\c2cc(OC)c(OC)c(OC)c2)cc1O [CA4, cis-1-(3,4,5-trimethoxyphenyl)-2-(3′-hydroxy-4′-methoxyphenyl)ethylene, reference compound] | […] | 5.6 | 5.2 | 7.2 | 5.5 | 43 |  |  |
| COc1cc(OC)cc(-c2ncoc2-c2ccc(OC)c(N)c2)c1 [Compound C115, 4-(3,5-dimethoxyphenyl)-5-(3-amino-4-methoxyphenyl)oxazole] | 460 | 52 | 5.7 | > 300 | 101 | 335 |  |  |
| COc1cc(OC)cc(-c2ncoc2-c2ccc(OC)c(O)c2F)c1 [Compound C117, 4-(3,5-dimethoxyphenyl)-5-(2-fluoro-3-hydroxy-4-methoxyphenyl)oxazole] |  | 10.2 | 8.5 | 130 | 88.9 | > 300 | 168.1 to 172.4 |  |
| COc1cc(OC)cc(-c2ncoc2-c2ccc(OC)c(O)c2O)c1 [Compound C116, 4-(3,5-dimethoxyphenyl)-5-(2,3-dihydroxy-4-methoxyphenyl)oxazole] | 530 |  |  |  |  |  | 178.6 to 180.4 |  |
| COc1cc(OC)cc(-c2ncoc2-c2ccc(OC(F)(F)F)c(O)c2)c1 [Compound C142, 4-(3,5-dimethoxyphenyl)-5-(3-hydroxy-4-trifluoromethoxyphenyl)oxazole] |  | 62 | 4.2 | 4.1 | 11.3 | 416 |  |  |
| CNc1ccc(-c2ocnc2-c2cc(OC)cc(OC)c2)cc1O [Compound C123, 4-(3,5-dimethoxyphenyl)-5-(3-hydroxy-4-methylaminophenyl)oxazole] | 660 |  | 7.2 | > 300 | 1.2 | > 300 | 149.9 to 151.6 | IC50 ([6]; 72 hours): 189 nM |
| COc1cc(-c2ncn(CCO)c2-c2ccc(N(CCCl)CCCl)cc2)cc(OC)c1OC [Compound C248] |  |  |  |  |  |  |  | IC50 ([2]; 72 hours): 10.3 nM; IC50 ([3]; 72 hours): 11.2 nM; IC50 ([4]; 72 hours): > 300 nM; IC50 ([5]; MCF-7 cells, 72 hours): 6.9 nM; IC50 ([6]; 72 hours): 312 nM |
| COc1cc(OC)cc(-c2ncn(CCO)c2-c2ccc(OC)c(F)c2)c1 [Compound C256, N-hydroxyethyl-4-(3,5-dimethoxyphenyl)-5-(3-fluoro-4-methoxyphenyl)imidazole] | 1570 | > 300 | 7.6 | 10.3 |  | 460 |  |  |
| COc1cc(OC)cc(-c2ncn(C)c2-c2scc3c2OCCO3)c1 [Compound C238, N-methyl-4-(3,5-dimethoxyphenyl)-5-[(3,4-ethylenedioxyl)thienyl]imidazole] |  |  |  |  |  |  |  | IC50 ([2]; 72 hours): > 300 nM; IC50 ([3]; 72 hours): 11.2 nM; IC50 ([4]; 72 hours): 150 nM; IC50 ([5]; MCF-7 cells, 72 hours): 6.1 nM; IC50 ([6]; 72 hours): 230 nM |
| COc1cc(OC)cc(-c2ncoc2-c2ccc3c(c2)NC(=O)CO3)c1 [Compound C253, 4-(3,5-dimethoxyphenyl)-5-[6-(3-oxobenzomorpholiny)]oxazole] |  |  |  |  |  |  |  | IC50 ([2]; 72 hours): 26.4 nM; IC50 ([3]; 72 hours): 310 nM; IC50 ([4]; 72 hours): 76.2 nM; IC50 ([5]; MCF-7 cells, 72 hours): 6.4 nM; IC50 ([6]; 72 hours): 121 nM |
| COc1cc(OC)cc(-c2ncn(C)c2-c2ccc(OC(F)(F)F)c(N)c2)c1 [Compound C132, 4-(3,5-dimethoxyphenyl)-5-(3-amino-4-trifluoromethoxyphenyl)-1-methylimidazole] |  | 90.1 | 4.5 | > 300 | 7.8 | 52 |  |  |
| COc1cc(OC)cc(-c2ncoc2-c2ccc(OC)c(O)c2)c1 [Compound C110, 4-(3,5-dimethoxyphenyl)-5-(3-hydroxy-4-methoxyphenyl)oxazole] | 470 | 33 | 49 | 2.5 | 210 | 71 | 149.9 to 151.6 |  |
| COc1cc(OC)cc(-c2ncoc2-c2ccc(OC)c(N)c2N)c1 [Compound C121, 4-(3,5-dimethoxyphenyl)-5-(2,3-diamino-4-methoxyphenyl)oxazole] | 2350 |  |  |  |  |  | 132.6 to 134 |  |
| COc1cc(OC)cc(-c2nc[nH]c2-c2ccc(OC)c(O)c2)c1 [Compound C118, 4-(3,5-dimethoxyphenyl)-5-(3-hydroxy-4-methoxyphenyl)-imidazole] | 490 | 14.3 | 2.8 |  | 46.3 | 40.5 |  |  |
